Data as given in paper PMC9258321, “Structure-guided design of CPPC-paired disulfide-rich peptide libraries for ligand and drug discovery” (Chemical Science, 2022).
Bridge positions count the residues as written; N and C are the ends. Peptide text beside a SMILES is read from it.

Experiments:
[1] = target: T1, CD28 (Homo sapiens, UniProt P10747); assay: Competition fluorescence polarization assay with oxidized FITC-drp8 as probe; format: binding; details: FP competition with oxidized FITC-drp8; negative control
T1 construct: purchased Sino Biological 11524-HCCH
T1 sequence (P10747 19-220): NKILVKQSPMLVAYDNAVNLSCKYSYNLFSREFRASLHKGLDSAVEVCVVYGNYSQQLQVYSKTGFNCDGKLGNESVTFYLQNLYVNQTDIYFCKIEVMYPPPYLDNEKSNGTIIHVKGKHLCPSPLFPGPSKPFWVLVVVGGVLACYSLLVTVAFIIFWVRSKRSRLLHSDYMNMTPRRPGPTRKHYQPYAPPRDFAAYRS
Method: (§1) min incubation at room temperature, the fluorescence anisotropies were measured using a plate reader (Eex= 485 nm, Eem=535 nm). All of the measurements were recorded in triplicate. In the fluorescence polarization assay s measuring the binding of reduced FITC-drp8 to CD28 and the binding of oxidized FITC-drp8 to CTLA-4, the fluorescence anisotrop ies were recorded in the same way as described above.
(§2) Dissociation constants ( KD) were determined by nonlinear regression analysis of anisotrop ies versus the concentrations of the protein using the following equation: […]
(§3) Y = A1 + (A2 − A1) × { 2×C } (1)
(§4) X: the concentration of protein, Y: the measured fluorescence anisotropy, C: the concentration of fluores-cent peptide, A1: the bottom plateaus of anisotropy, A2: the anisotropy signal in the presence of saturating concentrations of CD28, KD: the dissociation constant.
(§5) (b) Competition fluorescence polarization assay. The binding of drp8 to CD28 was measured by adding dilutions of drp8 to premixed oxidized FITC-drp8 and CD28 in PBS (pH 7.4). […] After 10 min incubation at room temperature, the plate was read using a plate reader (Eex= 485 nm, Eem = 535 nm). In the competition fluorescence polarization assay measuring the binding of drp1, drp7 and drp9 to CD28, the fluorescence anisotropies were recorded in the same way as described above. […]

[2] = target: T1, CD28; assay: FP assay: CD80 added to premixed oxidized FITC-drp8 and CD28; format: binding; details: CD80 50-500 nM added to 25 nM oxidized FITC-drp8 and 100 nM CD28, PBS pH 7.4, 20 min room temperature, Fig. S22
Method: as §1, §2, §3, §4, §5

[3] = test system: CTLA-4; assay: Fluorescence polarization binding assay to CTLA-4; details: FP assay, oxidized fluorescein-labeled peptide; Fig. S23
Method: as §1, §2, §3, §4, §5

| Compound | binding to CD28 in competition assay (in words) [1] | competition with CD80 for CD28 (in words) [2] | binding affinity to CTLA4 (in words) [3] |
| --- | --- | --- | --- |
| H-CPPCHGRPTCDSFTNCWELLTCPPC-NH2 (also: bicyclic or more (positions not given here)) [drp1, template and negative control for CD28] | negligibly binds with CD28 | – | – |
| CC(C)C[C@@H]1NC(=O)CNC(=O)[C@H](CCC(=O)O)NC(=O)[C@@H]2CSSC[C@H](NC(=O)[C@H](CC(N)=O)NC(=O)[C@H](CC(N)=O)NC1=O)C(=O)N[C@@H](Cc1c[nH]c3ccccc13)C(=O)N[C@@H](Cc1ccccc1)C(=O)N[C@@H](C(C)C)C(=O)N[C@@H](CCC(=O)O)C(=O)N[C@@H](C)C(=O)N[C@H]1CSSC[C@H](NC(=O)CN)C(=O)N3CCC[C@H]3C(=O)N3CCC[C@H]3C(=O)N[C@@H](CSSC[C@@H](C(N)=O)NC(=O)[C@@H]3CCCN3C(=O)[C@@H]3CCCN3C1=O)C(=O)N1CCC[C@H]1C(=O)N[C@@H](CCCNC(=N)N)C(=O)N[C@@H](CCC(=O)O)C(=O)N[C@@H](Cc1c[nH]cn1)C(=O)N[C@@H](CCC(=O)O)C(=O)N[C@@H](CC(C)C)C(=O)N[C@@H](C(C)C)C(=O)N[C@@H](C)C(=O)N[C@@H](C(C)C)C(=O)N1CCC[C@H]1C(=O)N2 [drp8] (H-GCPPCPREHELVAVPCEGLNNCWFVEACPPC-NH2; disulfide 2-28, 5-31, 16-22) | – | capable of blocking the CD80 and CD28 interaction | negligible binding affinity |
